In article PMC5356695, “A phase 1 study of oral ridaforolimus in pediatric patients with advanced solid tumors” (Oncotarget, 2016):
Where two headings read alike, the source gives them in different places.

System: pediatric patients with advanced solid tumors
Settings: for Leukopenia (treatment-related AE): laboratory values only
Experimental: This phase 1, multicenter, open-label study was conducted at a total of 8 study sites (3 study sites in the United States and 5 Innovative Therapies for Children with Cancer [ITCC] Consortium centers [2 in the United Kingdom and 3 in France]) between January 31, 2012, and the data cutoff, January 14, 2014 (ClinicalTrials.gov identifier NCT01431534; European Clinical Trials Database [EudraCT] number 2011-000729-55). An enteric-coated tablet formulation of ridaforolimus was orally administered for 5 consecutive days and not administered for 2 consecutive days per week in 28-day cycles until progression, unacceptable toxicity, or consent withdrawal. […] Dose escalation was conducted by using a modified toxicity probability intervals method that targeted a 30% DLT rate and started at 22 mg/m^2 (the equivalent of the adult RP2D [27], a 40-mg dose in adults with a BSA of 1.8 m^2). […] Dosing was adjusted based on BSA and rounded to the nearest 10-mg tablet. Patients were to be treated at sequentially rising dose levels until a preliminary MTD was identified.
Toxicity was graded according to the National Cancer Institute Common Terminology Criteria for Adverse Events, version 4.0 [42]. Safety data were reported for all patients who received at least 1 dose of the study drug. […] Once the RP2D of ridaforolimus was defined, an expansion cohort to be treated at the RP2D was planned to obtain additional safety, tolerability, and pharmacokinetic data.

CO[C@H]1C[C@@H]2CC[C@@H](C)[C@@](O)(O2)C(=O)C(=O)N2CCCC[C@H]2C(=O)O[C@H]([C@H](C)C[C@@H]2CC[C@@H](OP(C)(C)=O)[C@H](OC)C2)CC(=O)[C@H](C)/C=C(\C)[C@@H](O)[C@@H](OC)C(=O)[C@H](C)C[C@H](C)/C=C/C=C/C=C/1C [ridaforolimus]
3 (23) n (%): Increased ALT (treatment-related AE) (33 mg/m^2 n = 13, grades 3–4)
1 (33) n (%): Thrombocytopenia (treatment-related AE) (28 mg/m^2 n = 3, any grade) | Hypercholesterolemia (treatment-related AE) (28 mg/m^2 n = 3, grades 3–4) | Increased ALT (treatment-related AE) (28 mg/m^2 n = 3, grades 3–4) | Thrombocytopenia (treatment-related AE) (28 mg/m^2 n = 3, grades 3–4)
1 (25) n (%): Vomiting (treatment-related AE) (22 mg/m^2 n = 4, any grade) | Leukopenia (treatment-related AE) (22 mg/m^2 n = 4, any grade) | Hypophosphatemia (treatment-related AE) (22 mg/m^2 n = 4, grades 3–4) | Increased ALT (treatment-related AE) (22 mg/m^2 n = 4, grades 3–4) | Oral herpes (treatment-related AE) (22 mg/m^2 n = 4, grades 3–4)
1 patients: Patients discontinued due to an adverse event (grade 5 gastric perforation related to underlying disease) (33 mg/m^2 (n = 13), 8%)
0 n (%): Anemia (treatment-related AE) (22 mg/m^2 n = 4, grades 3–4) | Decreased appetite (treatment-related AE) (22 mg/m^2 n = 4, grades 3–4) | Decreased weight (treatment-related AE) (22 mg/m^2 n = 4, grades 3–4) | Diarrhea (treatment-related AE) (22 mg/m^2 n = 4, grades 3–4) | Dry mouth (treatment-related AE) (22 mg/m^2 n = 4, grades 3–4) | Dysgeusia (treatment-related AE) (22 mg/m^2 n = 4, grades 3–4) | Epistaxis (treatment-related AE) (22 mg/m^2 n = 4, grades 3–4) | Fatigue (treatment-related AE) (22 mg/m^2 n = 4, grades 3–4) | Headache (treatment-related AE) (22 mg/m^2 n = 4, grades 3–4) | Hypercholesterolemia (treatment-related AE) (22 mg/m^2 n = 4, grades 3–4) | Hyperglycemia (treatment-related AE) (22 mg/m^2 n = 4, grades 3–4) | Hypertriglyceridemia (treatment-related AE) (22 mg/m^2 n = 4, grades 3–4) | Hypocalcemia (treatment-related AE) (22 mg/m^2 n = 4, grades 3–4) | Hypokalemia (treatment-related AE) (22 mg/m^2 n = 4, grades 3–4) | Increased AST (treatment-related AE) (22 mg/m^2 n = 4, grades 3–4) | Increased alkaline phosphatase (treatment-related AE) (22 mg/m^2 n = 4, grades 3–4) | Increased bilirubin (treatment-related AE) (22 mg/m^2 n = 4, grades 3–4) | Increased γ-glutamyltransferase (treatment-related AE) (22 mg/m^2 n = 4, grades 3–4) | Lymphopenia (treatment-related AE) (22 mg/m^2 n = 4, grades 3–4) | Nausea (treatment-related AE) (22 mg/m^2 n = 4, grades 3–4) | Neutropenia (treatment-related AE) (22 mg/m^2 n = 4, grades 3–4) | Photophobia (treatment-related AE) (22 mg/m^2 n = 4, grades 3–4) | Rash (treatment-related AE) (22 mg/m^2 n = 4, grades 3–4) | Stomatitis (treatment-related AE) (22 mg/m^2 n = 4, grades 3–4) | Thrombocytopenia (treatment-related AE) (22 mg/m^2 n = 4, grades 3–4) | Vomiting (treatment-related AE) (22 mg/m^2 n = 4, grades 3–4) | Leukopenia (treatment-related AE) (22 mg/m^2 n = 4, grades 3–4) | Vomiting (treatment-related AE) (28 mg/m^2 n = 3, any grade) | Anemia (treatment-related AE) (28 mg/m^2 n = 3, grades 3–4) | Decreased appetite (treatment-related AE) (28 mg/m^2 n = 3, grades 3–4) | Decreased weight (treatment-related AE) (28 mg/m^2 n = 3, grades 3–4) | Diarrhea (treatment-related AE) (28 mg/m^2 n = 3, grades 3–4) | Dry mouth (treatment-related AE) (28 mg/m^2 n = 3, grades 3–4) | Dysgeusia (treatment-related AE) (28 mg/m^2 n = 3, grades 3–4) | Epistaxis (treatment-related AE) (28 mg/m^2 n = 3, grades 3–4) | Fatigue (treatment-related AE) (28 mg/m^2 n = 3, grades 3–4) | Headache (treatment-related AE) (28 mg/m^2 n = 3, grades 3–4) | Hyperglycemia (treatment-related AE) (28 mg/m^2 n = 3, grades 3–4) | Hypertriglyceridemia (treatment-related AE) (28 mg/m^2 n = 3, grades 3–4) | Hypocalcemia (treatment-related AE) (28 mg/m^2 n = 3, grades 3–4) | Hypokalemia (treatment-related AE) (28 mg/m^2 n = 3, grades 3–4) | Hypophosphatemia (treatment-related AE) (28 mg/m^2 n = 3, grades 3–4) | Increased AST (treatment-related AE) (28 mg/m^2 n = 3, grades 3–4) | Increased alkaline phosphatase (treatment-related AE) (28 mg/m^2 n = 3, grades 3–4) | Increased bilirubin (treatment-related AE) (28 mg/m^2 n = 3, grades 3–4) | Increased γ-glutamyltransferase (treatment-related AE) (28 mg/m^2 n = 3, grades 3–4) | Lymphopenia (treatment-related AE) (28 mg/m^2 n = 3, grades 3–4) | Nausea (treatment-related AE) (28 mg/m^2 n = 3, grades 3–4) | Neutropenia (treatment-related AE) (28 mg/m^2 n = 3, grades 3–4) | Oral herpes (treatment-related AE) (28 mg/m^2 n = 3, grades 3–4) | Photophobia (treatment-related AE) (28 mg/m^2 n = 3, grades 3–4) | Rash (treatment-related AE) (28 mg/m^2 n = 3, grades 3–4) | Stomatitis (treatment-related AE) (28 mg/m^2 n = 3, grades 3–4) | Vomiting (treatment-related AE) (28 mg/m^2 n = 3, grades 3–4) | Leukopenia (treatment-related AE) (28 mg/m^2 n = 3, grades 3–4) | Anemia (treatment-related AE) (33 mg/m^2 n = 13, grades 3–4) | Decreased appetite (treatment-related AE) (33 mg/m^2 n = 13, grades 3–4) | Decreased weight (treatment-related AE) (33 mg/m^2 n = 13, grades 3–4) | Diarrhea (treatment-related AE) (33 mg/m^2 n = 13, grades 3–4) | Dry mouth (treatment-related AE) (33 mg/m^2 n = 13, grades 3–4) | Dysgeusia (treatment-related AE) (33 mg/m^2 n = 13, grades 3–4) | Epistaxis (treatment-related AE) (33 mg/m^2 n = 13, grades 3–4) | Fatigue (treatment-related AE) (33 mg/m^2 n = 13, grades 3–4) | Headache (treatment-related AE) (33 mg/m^2 n = 13, grades 3–4) | Hypercholesterolemia (treatment-related AE) (33 mg/m^2 n = 13, grades 3–4) | Hyperglycemia (treatment-related AE) (33 mg/m^2 n = 13, grades 3–4) | Hypocalcemia (treatment-related AE) (33 mg/m^2 n = 13, grades 3–4) | Hypokalemia (treatment-related AE) (33 mg/m^2 n = 13, grades 3–4) | Hypophosphatemia (treatment-related AE) (33 mg/m^2 n = 13, grades 3–4)
1 patient: Patients with serious adverse events related to study treatment (22 mg/m^2, grade 3 oral herpes) | Patients with DLT (grade 3 increased ALT) (33 mg/m^2, 18 patients evaluable for DLTs overall)
1 (8) n (%): Hypertriglyceridemia (treatment-related AE) (33 mg/m^2 n = 13, grades 3–4) | Increased AST (treatment-related AE) (33 mg/m^2 n = 13, grades 3–4)
2 (67) n (%): Leukopenia (treatment-related AE) (28 mg/m^2 n = 3, any grade) | Patients with ≥1 treatment-related adverse event (28 mg/m^2 n = 3, grades 3–4)
2 (15) n (%): Vomiting (treatment-related AE) (33 mg/m^2 n = 13, any grade)
2 patients: Patients with serious adverse events related to study treatment (33 mg/m^2, grade 2 rectal pain, grade 2 seizure)
4 (31) n (%): Leukopenia (treatment-related AE) (33 mg/m^2 n = 13, any grade)
2 (50) n (%): Stomatitis (treatment-related AE) (22 mg/m^2 n = 4, any grade) | Thrombocytopenia (treatment-related AE) (22 mg/m^2 n = 4, any grade) | Patients with ≥1 treatment-related adverse event (22 mg/m^2 n = 4, grades 3–4)
10 (77) n (%): Stomatitis (treatment-related AE) (33 mg/m^2 n = 13, any grade) | Thrombocytopenia (treatment-related AE) (33 mg/m^2 n = 13, any grade)
3 (100) n (%): Stomatitis (treatment-related AE) (28 mg/m^2 n = 3, any grade)
